Test results published in publication PMC10916402, “Meropenem-ANT3310, a unique β-lactam-β-lactamase inhibitor combination with expanded antibacterial spectrum against Gram-negative pathogens including carbapenem-resistant Acinetobacter baumannii” (Antimicrobial Agents and Chemotherapy, 2024).
Values after ≈ are worked out from the molar mass of the structure shown. Where two headings read alike, the source gives them in different places.

Columns and labels:
[1] = design: method as in PMID 14517194, PMID 20851549; conditions: 2 g MEM q8h as a 3-h IV infusion; cited from earlier work
[2] = design: method as in PMID 32297801; conditions: 2 g MEM q8h as a 3-h IV infusion, MEM-vaborbactam clinical trials; cited from earlier work
[3] = tested on: P. aeruginosa clinical isolates; experiment: Broth microdilution MIC, P. aeruginosa clinical isolates; assay type: cell-based, Pseudomonas aeruginosa; conditions: 502 P. aeruginosa, 2019 global collection
Summary of the method: (§1)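 Broth microdilution per CLSI and EUCAST in cation-adjusted Mueller Hinton broth, iron-depleted for cefiderocol; ANT3310 panels prepared fresh on test day. Isolates collected 2018–2019, identity confirmed by MALDI-TOF. MIC taken as first well without visible growth, interpreted with 2023 CLSI and EUCAST breakpoints.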

[4] = tested on: A. baumannii ACC00445 (OXA-23); experiment: Murine thigh infection model; assay type: in vivo, neutropenic male CD-1 mice; conditions: 9-h model, MEM 300 mg/kg IV every 2 h alone
[5] = tested on: OXA-producing Enterobacterales (OXA-CRE); experiment: organism not typed; assay type: cell-based
Summary of the method: as §1

[6] = tested on: KPC-producing Enterobacterales (KPC-CRE); experiment: organism not typed; assay type: cell-based
Summary of the method: as §1

[7] = tested on: A. baumannii ACC00445 (OXA-23); experiment: MIC against the isolate used in the infection models; assay type: cell-based; conditions: Acinetobacter baumannii
Method: MICs for all antimicrobial agents were determined at IHMA by broth microdilution in accordance with both CLSI ([17]) and EUCAST ([18]) guidelines. Microtiter panels were prepared by IHMA and stored at −70°C in cation-adjusted Mueller Hinton broth (CAMHB) (Becton Dickinson). Iron-depleted CAMHB was used to test cefiderocol. Panels containing ANT3310 were prepared fresh on the day of testing. […] MIC values corresponded to the first well with no visible growth. Quality control testing was performed on each day of testing with E. coli ATCC 25922, P. aeruginosa ATCC 27853, K. pneumoniae ATCC 700603 and BAA 1705, and A. baumannii NCTC 13304. MICs were interpreted using 2023 CLSI ([17]) and EUCAST ([18]) BPs.

[8] = tested on: A. baumannii clinical isolates; experiment: Broth microdilution MIC, A. baumannii clinical isolates; assay type: cell-based, Acinetobacter baumannii; conditions: for CLSI % Res / CLSI % Sus: CLSI BP; for CLSI % Res: for MEM-ANT3310 % at ≥16 µg/mL; for CLSI % Sus: for MEM-ANT3310 % inhibited at ≤8 µg/mL; for EUCAST % Res / EUCAST % Sus: EUCAST BP
Summary of the method: as §1

[9] = tested on: A. baumannii ACC00445 (OXA-23); experiment: Murine lung infection model; assay type: in vivo, neutropenic male CD-1 mice; conditions: 14-h model, MEM IV 30 mg/kg
[10] = tested on: carbapenem-resistant Acinetobacter baumannii (CRAB) clinical isolates; experiment: Broth microdilution MIC, CRAB isolates; assay type: cell-based; conditions: for CLSI % Res / CLSI % Sus / EUCAST % Res / EUCAST % Sus: CRAB; for CLSI % Res / CLSI % Sus: CLSI BP; for CLSI % Res: for MEM-ANT3310 % at ≥16 µg/mL; for CLSI % Sus: for MEM-ANT3310 % inhibited at ≤8 µg/mL; for EUCAST % Res / EUCAST % Sus: EUCAST BP; for MIC90: read-out: MIC90
Summary of the method: as §1

[11] = 252 OXA-producing Enterobacterales, EUCAST BP
[12] = 180 KPC-producing Enterobacterales, EUCAST BP
[13] = 2018 Global collection, All A. baumannii, N 500
[14] = 2019 Global collection, All A. baumannii, N 405
[15] = 2018 Global collection, CRAB (MEM MICs >4 µg/mL), N 363
[16] = 2019 Global collection, CRAB (MEM MICs >4 µg/mL), N 340

## C[C@@H](O)[C@H]1C(=O)N2C(C(=O)O)=C(S[C@@H]3CN[C@H](C(=O)N(C)C)C3)[C@H](C)[C@H]12 [MEM, meropenem]
[1]
  probability of target attainment for MEM MICs ≤8 µg/mL: > 90%
[2]
  safety and tolerability: generally safe and well tolerated
[3]
  Number of isolates inhibited at MIC of 0.25 µg/mL: 97
  Number of isolates inhibited at MIC of 0.5 µg/mL: 109
  Number of isolates inhibited at MIC of 1 µg/mL: 87
  Number of isolates inhibited at MIC of 2 µg/mL: 27
  Number of isolates inhibited at MIC of 4 µg/mL: 25
  Number of isolates inhibited at MIC of 8 µg/mL: 27
  Number of isolates inhibited at MIC of 16 µg/mL: 15
  Number of isolates inhibited at MIC of 32 µg/mL: 9
  Number of isolates inhibited at MIC of >32 µg/mL: 26
  Number of isolates inhibited at MIC of ≤0.125 µg/mL: 80
[3]; Pseudomonas aeruginosa, read-out: MIC50
  MIC50: 0.5 µg/mL (≈ 1.3 µM)
[3]; Pseudomonas aeruginosa, read-out: MIC90
  MIC90: 8 µg/mL (≈ 20.9 µM)
[4]
  bacterial counts compared to the vehicle-treated group: No reductions in bacterial counts
[5]
  MIC50: 16 µg/mL (≈ 41.7 µM)
  MIC90: > 32 µg/mL
[5]; 252 OXA-producing Enterobacterales, 2018 global collection
  MIC90: >32 µg/mL
[5]; 252 OXA-producing Enterobacterales, CLSI BP, for MEM-ANT3310 % at ≥16 µg/mL
  CLSI % Res: 89.7%
[5]; 252 OXA-producing Enterobacterales, CLSI BP, for MEM-ANT3310 % inhibited at ≤8 µg/mL
  CLSI % Sus: 0%
[5]; [11]
  EUCAST % Res: 74.6%
  EUCAST % Sus: 10.5%
[6]
  MIC50: > 32 µg/mL
  MIC90: > 32 µg/mL
[6]; 180 KPC-producing Enterobacterales, 2018 global collection
  MIC90: >32 µg/mL
[6]; 180 KPC-producing Enterobacterales, CLSI BP, for MEM-ANT3310 % at ≥16 µg/mL
  CLSI % Res: 98.9%
[6]; 180 KPC-producing Enterobacterales, CLSI BP, for MEM-ANT3310 % inhibited at ≤8 µg/mL
  CLSI % Sus: 0%
[6]; [12]
  EUCAST % Res: 88.3%
  EUCAST % Sus: 1.1%
[7]
  MIC: 64 µg/mL (≈ 167 µM)
[8]; 905 A. baumannii isolates, overall
  % of isolates resistant to MEM (CLSI, MIC ≥8 µg/mL): 78%
[8]; [13]
  MIC50: >32 µg/mL
  MIC90: >32 µg/mL
  Number of isolates inhibited at MIC of 0.25 µg/mL: 52
  Number of isolates inhibited at MIC of 0.5 µg/mL: 42
  Number of isolates inhibited at MIC of 1 µg/mL: 21
  Number of isolates inhibited at MIC of 2 µg/mL: 9
  Number of isolates inhibited at MIC of 4 µg/mL: 6
  Number of isolates inhibited at MIC of 8 µg/mL: 5
  Number of isolates inhibited at MIC of 16 µg/mL: 16
  Number of isolates inhibited at MIC of 32 µg/mL: 64
  Number of isolates inhibited at MIC of >32 µg/mL: 278
  Number of isolates inhibited at MIC of ≤0.125 µg/mL: 7
  CLSI % Res: 72.6%
  CLSI % Sus: 26.2%
  EUCAST % Res: 71.6%
  EUCAST % Sus: 26.2%
[8]; [14]
  MIC50: >32 µg/mL
  Number of isolates inhibited at MIC of 0.25 µg/mL: 31
  Number of isolates inhibited at MIC of 0.5 µg/mL: 18
  Number of isolates inhibited at MIC of 1 µg/mL: 1
  Number of isolates inhibited at MIC of 2 µg/mL: 5
  Number of isolates inhibited at MIC of 4 µg/mL: 3
  Number of isolates inhibited at MIC of 8 µg/mL: 9
  Number of isolates inhibited at MIC of 16 µg/mL: 12
  Number of isolates inhibited at MIC of 32 µg/mL: 66
  Number of isolates inhibited at MIC of >32 µg/mL: 253
  Number of isolates inhibited at MIC of ≤0.125 µg/mL: 7
  CLSI % Res: 83.9%
  CLSI % Sus: 15.3%
  EUCAST % Res: 81.7%
  EUCAST % Sus: 15.3%
[8]; A. baumannii isolates from Asia/Pacific
  MEM-resistance rate: 74%
[8]; A. baumannii isolates from Middle East
  MEM-resistance rate: 91%
[8]; A. baumannii isolates from North America
  MEM-resistance rate: 40%
[8]; Acinetobacter baumannii, 2018 Global collection, All A. baumannii, N 500, read-out: MIC90
  MIC90: > 32 µg/mL
[8]; Acinetobacter baumannii, 2019 Global collection, All A. baumannii, N 405, read-out: MIC90
  MIC90: > 32 µg/mL
[8]; Acinetobacter baumannii, A. baumannii, one or both of the 2018/2019 collections, read-out: MIC90
  MIC90: ≥ 32 µg/mL
[8]; Acinetobacter baumannii, combined A. baumannii 2018–2019 collection (n = 905), ANT3310 at 8 µg/mL, read-out: MIC50
  MIC50: > 32 µg/mL
[8]; Acinetobacter baumannii, combined A. baumannii 2018–2019 collection (n = 905), ANT3310 at 8 µg/mL, read-out: MIC90
  MIC90: > 32 µg/mL
[9]
  efficacy of MEM alone: No efficacy
[10]; [15]
  MIC50: >32 µg/mL
  Number of isolates inhibited at MIC of 8 µg/mL: 5
  Number of isolates inhibited at MIC of 16 µg/mL: 16
  Number of isolates inhibited at MIC of 32 µg/mL: 64
  Number of isolates inhibited at MIC of >32 µg/mL: 278
[10]; 2018 Global collection, N 363
  CLSI % Res: 100%
  CLSI % Sus: 0%
  EUCAST % Res: 98.6%
  EUCAST % Sus: 0%
[10]; [16]
  MIC50: >32 µg/mL
  Number of isolates inhibited at MIC of 8 µg/mL: 9
  Number of isolates inhibited at MIC of 16 µg/mL: 12
  Number of isolates inhibited at MIC of 32 µg/mL: 66
  Number of isolates inhibited at MIC of >32 µg/mL: 253
[10]; 2019 Global collection, N 340
  CLSI % Res: 100%
  CLSI % Sus: 0%
  EUCAST % Res: 97.3%
  EUCAST % Sus: 0%
[10]; Acinetobacter baumannii, 2018 Global collection, CRAB (MEM MICs >4 µg/mL), N 363
  MIC90: > 32 µg/mL
[10]; Acinetobacter baumannii, 2019 Global collection, CRAB (MEM MICs >4 µg/mL), N 340
  MIC90: > 32 µg/mL
[10]; Acinetobacter baumannii, CRAB isolates 2018–2019 (n = 703), ANT3310 at 8 µg/mL, read-out: MIC50
  MIC50: > 32 µg/mL
[10]; Acinetobacter baumannii, CRAB isolates 2018–2019 (n = 703), ANT3310 at 8 µg/mL
  MIC90: > 32 µg/mL
